Test results: patent US10370343B2, “[6,6] Fused bicyclic HDAC8 inhibitors” (FORMA Therapeutics, Inc., priority 2015, dated 2019)

Assays:
[1] = molecular target: T1, Full length human recombinant HDAC8 protein (Homo sapiens, UniProt Q9BY41); test: In vitro histone deacetylase assay: enzymatic HDAC8 electrophoretic mobility shift assay; type: biochemical; settings: electrophoretic mobility shift assay; enzyme 1 nM; 2 μM fluorescently labeled peptide substrate RHKK(Ac)-NH2; 25° C.; 12 concentrations; read-out: HDAC8 IC50
T1 construct: Full length human recombinant HDAC8 protein was expressed in baculoviral system; made in house
T1 sequence (Q9BY41 1-377): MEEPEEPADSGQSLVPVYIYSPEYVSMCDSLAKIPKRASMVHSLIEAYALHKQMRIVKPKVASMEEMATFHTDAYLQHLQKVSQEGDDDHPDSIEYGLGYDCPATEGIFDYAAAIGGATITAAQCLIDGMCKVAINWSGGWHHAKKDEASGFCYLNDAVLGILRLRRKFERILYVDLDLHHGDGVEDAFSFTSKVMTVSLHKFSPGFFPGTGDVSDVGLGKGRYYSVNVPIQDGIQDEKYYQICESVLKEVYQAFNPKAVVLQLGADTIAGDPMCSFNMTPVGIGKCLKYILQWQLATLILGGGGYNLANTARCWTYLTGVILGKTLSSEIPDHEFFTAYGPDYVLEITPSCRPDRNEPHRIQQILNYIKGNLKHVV

[2] = molecular target: T2, Recombinant N-terminal GST tag full-length human HDAC8 (Homo sapiens, UniProt Q9BY41); test: HDAC8 probe binding assay, time resolved fluorescence (TRF) format; settings: compounds grouped by IC50 range (Table 2)
T2 construct: Recombinant N-terminal GST tag full-length human HDAC8; purchased SignalChem H90-30G-1000; host or cells: baculovirus in Sf9 insect cells
T2 sequence (Q9BY41 1-377): T1 sequence (Q9BY41 1-377)
In short: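 Probe-binding TRF assay using full-length N-GST human HDAC8 expressed in baculovirus-infected Sf9 cells, incubated 16 h at room temperature and read at 340 nm excitation, 485/535 nm emission. Percent inhibition was normalised to no-enzyme and DMSO controls. IC50 was obtained by 4-parameter logistic fit.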

Compound | IC50 [1] | IC50 [2]
O=C(NO)c1ccc2c(c1)N(Cc1cnn(-c3ccccc3)c1)C(=O)CO2 [Compound I-223, N-hydroxy-3-oxo-4-((1-phenyl-1H-pyrazol-4-yl)methyl)-3,4-dihydro-2H-benzo[b][1,4]oxazine-6-carboxamide] | < 25 nM | ≤ 25 nM
CC1Oc2ccc(C(=O)NO)cc2N(Cc2ccc(S(C)(=O)=O)cc2)C1=O (stereo not drawn) [Compound I-152, N-hydroxy-2-methyl-4-(4-(methylsulfonyl)benzyl)-3-oxo-3,4-dihydro-2H-benzo[b][1,4]oxazine-6-carboxamide] | < 25 nM | ≤ 25 nM
Cc1cccc(CN2C(=O)COc3ccc(C(=O)NO)cc32)c1F [Compound I-74, 4-(2-fluoro-3-methylbenzyl)-N-hydroxy-3-oxo-3,4-dihydro-2H-benzo[b][1,4]oxazine-6-carboxamide] | < 25 nM | ≤ 25 nM
